Measured values reported in ChEMBL document CHEMBL5247643, “Discovery and Characterization of BAY-805, a Potent and Selective Inhibitor of Ubiquitin-Specific Protease USP21” (J Med Chem, 2023).
The source made the active and inactive calls. The rule behind the calls is not given here.

Columns and labels:
[1] = target: T1, Ubiquitin carboxyl-terminal hydrolase 15 (Homo sapiens) (UniProt Q9Y4E8); test: Inhibition of human USP15 (1 to 952 residues) expressed in Sf9 cells using ubiquitin rhodamine 110 as substrate assessed as remaining enzyme activity at 10 to 50 uM by fluorometric assay; conditions: dose 10-50 µM
T1 sequence (whole entry): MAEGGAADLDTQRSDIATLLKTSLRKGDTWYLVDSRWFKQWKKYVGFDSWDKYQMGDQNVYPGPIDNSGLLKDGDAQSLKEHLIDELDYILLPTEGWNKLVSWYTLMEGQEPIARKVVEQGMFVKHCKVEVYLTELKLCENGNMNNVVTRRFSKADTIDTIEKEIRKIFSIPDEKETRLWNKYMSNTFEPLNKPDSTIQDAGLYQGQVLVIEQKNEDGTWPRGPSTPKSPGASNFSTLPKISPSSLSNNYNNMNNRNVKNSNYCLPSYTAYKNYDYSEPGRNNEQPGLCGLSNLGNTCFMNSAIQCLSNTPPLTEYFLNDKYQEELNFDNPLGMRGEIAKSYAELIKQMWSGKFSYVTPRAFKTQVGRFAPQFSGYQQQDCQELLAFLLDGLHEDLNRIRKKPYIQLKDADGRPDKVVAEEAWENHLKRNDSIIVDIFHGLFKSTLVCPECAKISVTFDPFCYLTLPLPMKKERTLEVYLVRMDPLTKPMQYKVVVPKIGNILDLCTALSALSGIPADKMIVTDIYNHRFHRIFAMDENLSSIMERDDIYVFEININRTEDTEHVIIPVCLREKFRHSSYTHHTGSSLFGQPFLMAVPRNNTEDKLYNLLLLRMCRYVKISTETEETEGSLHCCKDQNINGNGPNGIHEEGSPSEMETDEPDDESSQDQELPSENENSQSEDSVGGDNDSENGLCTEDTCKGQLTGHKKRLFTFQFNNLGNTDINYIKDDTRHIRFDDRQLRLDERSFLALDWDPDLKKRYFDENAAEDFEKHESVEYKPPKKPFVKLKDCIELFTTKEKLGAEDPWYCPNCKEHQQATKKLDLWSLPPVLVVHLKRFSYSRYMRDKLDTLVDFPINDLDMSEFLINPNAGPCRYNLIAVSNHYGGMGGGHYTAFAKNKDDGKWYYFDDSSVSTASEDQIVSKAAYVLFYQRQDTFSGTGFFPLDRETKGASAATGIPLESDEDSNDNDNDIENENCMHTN

[2] = target: T2, Ubiquitin carboxyl-terminal hydrolase 30 (Homo sapiens) (UniProt Q70CQ3); test: Inhibition of human USP30 (57 to 517 residues) expressed in Sf9 cells using ubiquitin rhodamine 110 as substrate assessed as remaining enzyme activity at 10 to 50 uM by fluorometric assay; conditions: dose 10-50 µM
T2 sequence (whole entry): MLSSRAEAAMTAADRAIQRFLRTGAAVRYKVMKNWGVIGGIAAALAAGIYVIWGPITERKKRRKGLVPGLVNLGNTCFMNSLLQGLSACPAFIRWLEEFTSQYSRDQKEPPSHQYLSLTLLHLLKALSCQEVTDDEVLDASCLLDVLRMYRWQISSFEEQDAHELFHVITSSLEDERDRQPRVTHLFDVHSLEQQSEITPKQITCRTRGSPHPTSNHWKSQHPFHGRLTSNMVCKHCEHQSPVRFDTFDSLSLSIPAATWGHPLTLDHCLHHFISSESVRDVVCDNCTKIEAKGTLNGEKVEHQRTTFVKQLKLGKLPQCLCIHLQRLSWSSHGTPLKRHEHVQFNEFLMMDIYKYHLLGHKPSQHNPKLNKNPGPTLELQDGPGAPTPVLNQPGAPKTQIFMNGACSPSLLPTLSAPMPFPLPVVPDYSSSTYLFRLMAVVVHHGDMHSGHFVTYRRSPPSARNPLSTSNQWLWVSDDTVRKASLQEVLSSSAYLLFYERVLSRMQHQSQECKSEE

Ataxin-3 (Homo sapiens) = Ataxin-3 (Homo sapiens) (UniProt P54252); test: Inhibition of human Ataxin-3 (1 to 370 residues) expressed in Escherichia coli BL21 (DE3) using ubiquitin rhodamine 110 as substrate assessed as remaining enzyme activity at 10 to 50 uM by fluorometric assay; conditions: dose 10-50 µM
MOLM-13 = test: Antiproliferative activity against human MOLM-13 cells assessed as reduction in cell viability up to 30 uM incubated for 72 hrs by CellTiter-Glo luminescent assay; type: functional, cell-based
[3] = target: Ubiquitin carboxyl-terminal hydrolase 9X (Homo sapiens) (UniProt Q93008); test: Inhibition of human USP9X using ubiquitin rhodamine 110 as substrate at 10 to 50 uM by fluorometric assay; conditions: dose 10-50 µM
[4] = target: Ubiquitin carboxyl-terminal hydrolase 7 (Homo sapiens) (UniProt Q93009); test: Inhibition of human USP7 using ubiquitin rhodamine 110 as substrate at 10 to 50 uM by fluorometric assay; conditions: dose 10-50 µM
A549 = test: Antiproliferative activity against human A549 cells assessed as reduction in cell viability up to 30 uM incubated for 72 hrs by CellTiter-Glo luminescent assay; type: functional, cell-based
[5] = target: T3, Ubiquitin carboxyl-terminal hydrolase 5 (Homo sapiens) (UniProt P45974); test: Inhibition of human USP5 using ubiquitin rhodamine 110 as substrate at 10 to 50 uM by fluorometric assay; conditions: dose 10-50 µM
T3 sequence (whole entry): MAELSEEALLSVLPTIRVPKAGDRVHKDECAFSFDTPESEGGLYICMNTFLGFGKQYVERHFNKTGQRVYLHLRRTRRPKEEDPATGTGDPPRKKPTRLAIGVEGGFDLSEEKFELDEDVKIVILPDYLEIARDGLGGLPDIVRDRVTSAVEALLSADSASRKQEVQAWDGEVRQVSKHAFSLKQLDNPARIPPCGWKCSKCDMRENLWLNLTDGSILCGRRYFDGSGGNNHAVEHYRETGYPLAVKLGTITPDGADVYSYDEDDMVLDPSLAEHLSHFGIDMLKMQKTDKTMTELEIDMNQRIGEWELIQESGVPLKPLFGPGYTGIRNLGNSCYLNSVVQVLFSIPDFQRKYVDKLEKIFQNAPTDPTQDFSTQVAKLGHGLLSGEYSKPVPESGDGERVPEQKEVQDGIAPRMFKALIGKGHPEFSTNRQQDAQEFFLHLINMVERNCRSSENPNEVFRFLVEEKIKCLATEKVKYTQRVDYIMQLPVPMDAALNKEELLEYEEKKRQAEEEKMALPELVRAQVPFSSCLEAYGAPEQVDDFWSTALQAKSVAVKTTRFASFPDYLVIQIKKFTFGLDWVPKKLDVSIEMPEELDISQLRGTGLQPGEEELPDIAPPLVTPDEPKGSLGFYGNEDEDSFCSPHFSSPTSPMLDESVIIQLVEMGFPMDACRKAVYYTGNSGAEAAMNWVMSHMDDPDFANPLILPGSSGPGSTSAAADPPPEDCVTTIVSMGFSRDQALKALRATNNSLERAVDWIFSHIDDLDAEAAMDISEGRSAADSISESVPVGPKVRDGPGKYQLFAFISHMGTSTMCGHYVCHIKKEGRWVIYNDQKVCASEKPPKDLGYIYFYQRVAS

Chain of Ataxin-3 (Homo sapiens) (P54252 whole entry, the tested form may be a part): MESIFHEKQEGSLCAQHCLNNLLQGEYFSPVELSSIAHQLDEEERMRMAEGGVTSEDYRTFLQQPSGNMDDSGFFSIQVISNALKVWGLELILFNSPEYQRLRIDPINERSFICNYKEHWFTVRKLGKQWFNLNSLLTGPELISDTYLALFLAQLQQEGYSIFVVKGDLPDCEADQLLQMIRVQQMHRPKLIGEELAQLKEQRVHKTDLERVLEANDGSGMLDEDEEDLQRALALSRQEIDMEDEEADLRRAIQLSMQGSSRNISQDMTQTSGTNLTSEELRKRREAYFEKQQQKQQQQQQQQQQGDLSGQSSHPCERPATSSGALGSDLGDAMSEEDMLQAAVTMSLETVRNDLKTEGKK
Chain of Ubiquitin carboxyl-terminal hydrolase 7 (Homo sapiens) (Q93009 whole entry, looked up): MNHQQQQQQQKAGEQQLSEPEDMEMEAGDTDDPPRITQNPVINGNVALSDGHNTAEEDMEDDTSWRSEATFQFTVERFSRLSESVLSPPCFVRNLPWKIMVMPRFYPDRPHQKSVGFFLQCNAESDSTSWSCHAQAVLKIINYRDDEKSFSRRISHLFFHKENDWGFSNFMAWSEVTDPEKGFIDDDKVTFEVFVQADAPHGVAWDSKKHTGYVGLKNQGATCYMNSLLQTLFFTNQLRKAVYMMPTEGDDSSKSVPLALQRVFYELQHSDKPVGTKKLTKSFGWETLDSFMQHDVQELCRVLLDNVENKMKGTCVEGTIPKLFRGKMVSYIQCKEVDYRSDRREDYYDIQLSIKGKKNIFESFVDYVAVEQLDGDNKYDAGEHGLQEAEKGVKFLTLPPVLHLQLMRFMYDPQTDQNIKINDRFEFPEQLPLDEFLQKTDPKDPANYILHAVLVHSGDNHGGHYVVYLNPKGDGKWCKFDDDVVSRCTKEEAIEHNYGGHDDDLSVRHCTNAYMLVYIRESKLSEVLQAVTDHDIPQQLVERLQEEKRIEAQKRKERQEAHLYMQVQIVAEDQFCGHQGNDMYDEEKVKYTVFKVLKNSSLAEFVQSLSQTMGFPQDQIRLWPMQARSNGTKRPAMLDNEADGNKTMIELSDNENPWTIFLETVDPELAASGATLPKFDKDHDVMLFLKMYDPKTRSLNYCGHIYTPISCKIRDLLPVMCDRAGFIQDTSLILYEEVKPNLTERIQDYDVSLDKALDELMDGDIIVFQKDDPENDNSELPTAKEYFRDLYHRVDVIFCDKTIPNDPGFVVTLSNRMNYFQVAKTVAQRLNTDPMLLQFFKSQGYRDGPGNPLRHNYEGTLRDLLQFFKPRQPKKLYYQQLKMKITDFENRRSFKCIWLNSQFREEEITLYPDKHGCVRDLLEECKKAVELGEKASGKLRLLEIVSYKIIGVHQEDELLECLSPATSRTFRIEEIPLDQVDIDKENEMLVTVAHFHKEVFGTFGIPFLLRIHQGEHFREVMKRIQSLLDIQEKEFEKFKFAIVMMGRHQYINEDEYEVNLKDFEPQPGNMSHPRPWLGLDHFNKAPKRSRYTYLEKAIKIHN
Chain of Ubiquitin carboxyl-terminal hydrolase 9X (Homo sapiens) (Q93008 whole entry): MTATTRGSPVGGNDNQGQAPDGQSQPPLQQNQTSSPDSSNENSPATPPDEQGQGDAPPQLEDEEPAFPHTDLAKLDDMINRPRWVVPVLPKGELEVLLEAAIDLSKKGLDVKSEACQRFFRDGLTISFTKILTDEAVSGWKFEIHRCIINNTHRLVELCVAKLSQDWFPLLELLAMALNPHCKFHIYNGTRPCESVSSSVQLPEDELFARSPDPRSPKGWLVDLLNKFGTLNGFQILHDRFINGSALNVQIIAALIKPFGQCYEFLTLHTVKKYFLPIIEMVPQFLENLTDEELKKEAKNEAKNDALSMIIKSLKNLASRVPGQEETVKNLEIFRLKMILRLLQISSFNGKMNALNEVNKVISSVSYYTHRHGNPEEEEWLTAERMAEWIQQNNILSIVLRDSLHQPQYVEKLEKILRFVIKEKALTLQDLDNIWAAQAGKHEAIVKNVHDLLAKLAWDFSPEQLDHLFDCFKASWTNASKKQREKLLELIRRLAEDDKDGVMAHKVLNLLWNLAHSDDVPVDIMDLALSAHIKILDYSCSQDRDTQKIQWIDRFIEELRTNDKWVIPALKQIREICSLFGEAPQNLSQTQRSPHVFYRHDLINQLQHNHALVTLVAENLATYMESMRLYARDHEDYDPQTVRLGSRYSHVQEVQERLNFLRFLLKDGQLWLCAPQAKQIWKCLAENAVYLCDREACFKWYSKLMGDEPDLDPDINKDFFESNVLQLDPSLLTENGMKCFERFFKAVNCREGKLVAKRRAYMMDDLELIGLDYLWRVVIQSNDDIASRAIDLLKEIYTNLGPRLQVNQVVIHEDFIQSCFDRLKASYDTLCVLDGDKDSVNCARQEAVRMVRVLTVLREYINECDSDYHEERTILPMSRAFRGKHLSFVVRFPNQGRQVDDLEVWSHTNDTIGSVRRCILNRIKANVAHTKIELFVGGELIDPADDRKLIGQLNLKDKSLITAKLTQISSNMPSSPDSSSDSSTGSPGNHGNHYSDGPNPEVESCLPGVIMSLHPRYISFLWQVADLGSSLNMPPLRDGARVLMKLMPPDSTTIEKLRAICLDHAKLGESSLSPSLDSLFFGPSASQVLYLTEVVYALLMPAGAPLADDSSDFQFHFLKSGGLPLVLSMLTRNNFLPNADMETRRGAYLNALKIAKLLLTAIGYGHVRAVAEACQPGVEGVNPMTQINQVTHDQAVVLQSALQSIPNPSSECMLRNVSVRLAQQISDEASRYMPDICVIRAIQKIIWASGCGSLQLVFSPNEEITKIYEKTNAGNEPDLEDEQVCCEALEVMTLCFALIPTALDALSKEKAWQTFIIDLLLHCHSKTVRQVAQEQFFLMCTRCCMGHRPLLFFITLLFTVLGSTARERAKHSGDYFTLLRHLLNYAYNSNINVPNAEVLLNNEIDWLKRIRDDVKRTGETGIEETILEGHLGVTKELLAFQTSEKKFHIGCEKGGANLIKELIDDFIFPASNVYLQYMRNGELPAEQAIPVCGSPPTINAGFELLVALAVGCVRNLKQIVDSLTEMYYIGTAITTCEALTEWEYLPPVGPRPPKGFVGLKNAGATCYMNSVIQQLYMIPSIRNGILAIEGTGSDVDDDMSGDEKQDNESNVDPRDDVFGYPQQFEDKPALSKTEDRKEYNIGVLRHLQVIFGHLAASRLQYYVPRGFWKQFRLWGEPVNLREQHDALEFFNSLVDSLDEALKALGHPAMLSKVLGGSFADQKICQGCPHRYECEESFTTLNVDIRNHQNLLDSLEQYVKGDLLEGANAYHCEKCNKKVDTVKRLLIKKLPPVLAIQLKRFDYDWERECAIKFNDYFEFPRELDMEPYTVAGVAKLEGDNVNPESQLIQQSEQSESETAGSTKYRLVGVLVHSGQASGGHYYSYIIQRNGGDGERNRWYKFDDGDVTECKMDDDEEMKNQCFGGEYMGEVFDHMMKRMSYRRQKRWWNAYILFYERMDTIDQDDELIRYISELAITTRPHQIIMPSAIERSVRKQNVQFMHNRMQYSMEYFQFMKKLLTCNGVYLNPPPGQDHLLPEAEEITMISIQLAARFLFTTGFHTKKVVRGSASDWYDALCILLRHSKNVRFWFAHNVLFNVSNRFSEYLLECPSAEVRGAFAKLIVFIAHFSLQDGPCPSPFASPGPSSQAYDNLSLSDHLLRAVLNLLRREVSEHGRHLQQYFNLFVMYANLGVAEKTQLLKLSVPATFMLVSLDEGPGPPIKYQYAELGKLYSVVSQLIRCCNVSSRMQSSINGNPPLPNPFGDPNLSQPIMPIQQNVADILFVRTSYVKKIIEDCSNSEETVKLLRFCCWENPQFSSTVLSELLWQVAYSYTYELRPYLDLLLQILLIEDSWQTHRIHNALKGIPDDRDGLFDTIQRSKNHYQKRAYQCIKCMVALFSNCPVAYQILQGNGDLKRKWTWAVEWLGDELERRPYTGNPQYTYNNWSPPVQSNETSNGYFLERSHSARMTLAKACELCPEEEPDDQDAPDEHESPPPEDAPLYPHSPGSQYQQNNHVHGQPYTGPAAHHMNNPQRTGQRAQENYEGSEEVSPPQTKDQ

Row | Compound | Activity [1] [%] | Activity [2] [%] | Activity (Ataxin-3 (Homo sapiens)) [%] | Activity (MOLM-13) | inhibition [3] | inhibition [4] | Activity (A549) | inhibition [5]
1 | CC(NC(=O)C1CCCC1)C(=O)Nc1nnc(Cc2ccc([N+](=O)[O-])cc2)s1 (racemic) | < 50 | < 50 | < 50 |  |  |  |  | 
2 | CC(C)C[C@H](NC(=O)C1(C(F)(F)F)CCCCC1)C(=O)Nc1nnc(Cc2ccc(C#N)cc2)s1 |  |  |  | inactive | inactive | inactive | inactive | inactive
